Test results: patent US11440906B2, “Biguanide derivatives and their rearrangement products for use in the treatment of cancer” (CENTRE NATIONAL DE LA RECHERCHE SCIENTIFIQUE, priority 2017, dated 2022)
Like-named read-outs stand apart in the source and are kept apart here.

Test system: A375 Sensitive cells
Assay: Viability test, trypan blue exclusion, A375 Sensitive cells
Type: cell-based, human
Conditions: Homo sapiens, A-375; for viability at 5 µM / viability at 10 µM: viable cells as percentage of DMSO control
Text: Different melanoma cell lines were purchased from the American Tissue Culture Collection: A375 and WM9 cells are mutated on B-Raf, CDKN2A and PTEN proteins; SKmel28 cells are mutated on B-Raf and P53 proteins; 1205Lu cells are mutated on B-Raf and PTEN proteins; G-361 cells are mutated on B-Raf and CDKN2A proteins; C8161 cells are mutated on B-Raf and K-Ras proteins; WM3912 cells are mutated on B-Raf and CDKN2A proteins; MeWo cells are mutated on P53 and CDKN2A proteins; WM3918 presents no mutations on characteristic proteins.
For trypan blue staining, […] of cells (melanoma and normal human cells) were aseptically transferred to a 1.5 mL clear Eppendorf tube and incubated for 3 min at room temperature with an equal volume of 0.4% trypan blue solution. Viable cells were counted and the results are expressed as the percentage of the value of control cells. All the experiments are performed 3 times in triplicate.
A375 Sensitive cells were treated with different concentrations of the synthesized molecules (5.0 μM or 10 μM) for different times (24 hr or 48 hr) or with DMSO (Control) for 12 or 48 hr. At the end of the stimulation, viable cells were counted using the trypan blue dye exclusion method. The results are normalized as percentages compare to the control.
A375 Sensitive cells were treated with 5 μM of CRO15 for different times (2 hr, 4 hr, 6 hr, 8 hr, 12 hr, 24 hr or 48 hr) or with 5 μM of PLX4032 (B-Raf inhibitor) for 48 hr or with DMSO (Control) for 48 hr. At the end of stimulation, viable cells were counted using the trypan blue dye exclusion method. The results are normalized as percentages compare to the control and data means±SEM of three independent experiments performed in triplicate *p<0.05; **p<0.01; ***p<0.001.
A375 Sensitive cells were treated with different concentrations of CRO15 (0.5 μM, 2.5 μM, 5.0 μM, 7.5 μM, 50 μM) for 48 hr or with 5 μM of PLX4032 (B-Raf inhibitor) for 48 hr or with DMSO (Control) for 48 hr. At the end of the stimulation, viable cells were counted using the trypan blue dye exclusion method. The results are normalized as percentages compare to the control and data means±SEM of three independent experiments performed in triplicate *p<0.05; **p<0.01; ***p<0.001.
A375 sensitive and resistant melanoma cells were treated with 5 μM of CRO15 for 48 hr or with 5 μM of PLX4032 for 48 hr or with DMSO (Control). At 48 hours, viable cells were counted using the trypan blue dye exclusion method. The results are normalized as percentages compare to the control and data means±SEM of three independent experiments performed in triplicate *p<0.05; **p<0.01; ***p<0.001.

[1] = 24 h, read-out: Viab A375 5 μM/ 24 h
[2] = 48 h, read-out: Viab A375 5 μM/ 48 h
[3] = 24 h, read-out: Viab A375 10 μM/ 24 h
[4] = 48 h, read-out: Viab A375 10 μM/ 48 h

| IC50 (A375, printed in the 10 μM/24 h column of Table 1, read-out: IC50 (converted)) [nM] | SMILES | viability at 5 µM [1] [%] | viability at 5 µM [2] [%] | viability at 10 µM [3] [%] | viability at 10 µM [4] [%] |
| --- | --- | --- | --- | --- | --- |
| – | Cc1nc(NC(=N)NC(=N)c2ccccc2Cl)sc1C [MTF 300, 2-chloro-N—(N-(4,5-dimethylthiazol-2-yl)carbamimidoyl)benzimidamide] | 96 | 60 | 50.8 | 35.9 |
| – | N#Cc1cccc(-c2nc(N)nc(Nc3ccccc3SSc3ccccc3Nc3nc(N)nc(-c4cccc(C#N)c4)n3)n2)c1 [MTF 325, 3,3′-(((disulfanediylbis(2,1-phenylene))bis(azanediyl))bis(6-amino-1,3,5-triazine-4,2-diyl))dibenzonitrile] | 58.1 | 30.9 | 71 | 29.7 |
| – | Cc1csc(NC(=N)NC(=N)c2ccncc2)n1 [MTF 291, N—(N-(4-methylthiazol-2-yl)carbamimidoyl)isonicotinimidamide] | 100 | 95.2 | 100 | 41.3 |
| – | CC1(C)C=Cc2cc(C(=N)NC(=N)Nc3nc4ccccc4s3)ccc2O1 [MTF 388, N—(N-(benzo[d]thiazol-2-yl)carbamimidoyl)-2,2-dimethyl-2H-chromene-6-carboximidamide] | 61.4 | 65.1 | 55.7 | 18.4 |
| – | N=C(NC(=N)c1ccc([N+](=O)[O-])cc1)Nc1nc2ccccc2s1 [MTF 398, N—(N-(benzo[d]thiazol-2-yl)carbamimidoyl)-4-nitrobenzimidamide] | 91.9 | 132 | 91 | 109 |
| – | COc1ccc(C(=N)NC(=N)Nc2nc(C)cs2)cc1 [MTF 292, 4-methoxy-N—(N-(4-methylthiazol-2-yl)carbamimidoyl)benzimidamide] | 88.1 | 83.3 | 142 | 71.9 |
| – | Nc1nc(Nc2ccccc2SSc2ccccc2Nc2nc(N)nc(-c3ccc(C(F)(F)F)cc3)n2)nc(-c2ccc(C(F)(F)F)cc2)n1 [MTF 394, N2,N2′-(disulfanediylbis(2,1-phenylene))bis(6-(4-(trifluoromethyl)phenyl)-1,3,5-triazine-2,4-diamine)] | 13.1 | 4.4 | 4.5 | 1.1 |
| – | Nc1nc(Nc2cc([N+](=O)[O-])ccc2O)nc(C(Cl)(Cl)Cl)n1 [MTF 377, 2-((4-amino-6-(trichloromethyl)-1,3,5-triazin-2-yl)amino)-4-nitrophenol] | 27.3 | 34.4 | 22.7 | 33.5 |
| – | N=C(NC(=N)c1cccs1)Nc1nc2ccccc2s1 [MTF 381, N—(N-(benzo[d]thiazol-2-yl)carbamimidoyl)thiophene-2-carboximidamide] | 88.3 | 61.6 | 90.6 | 61.4 |
| – | N=C(NC(=N)c1cccc(F)c1)Nc1nc2ccccc2s1 [MTF 346, N—(N-(benzo[d]thiazol-2-yl)carbamimidoyl)-3-fluorobenzimidamide] | 66.9 | 10.6 | 43.2 | 12.9 |
| – | COc1ccc(Nc2nc(N)nc(C(Cl)(Cl)Cl)n2)c(SSc2cc(OC)ccc2Nc2nc(N)nc(C(Cl)(Cl)Cl)n2)c1 [MTF 232, N2,N2′-(disulfanediylbis(4-methoxy-2,1-phenylene))bis(6-(trichloromethyl)-1,3,5-triazine-2,4-diamine)] | 83.3 | 24.9 | 33.9 | 16.4 ± 4.9 |
| – | N=C(NC(=N)c1ccccc1)Nc1nc2ccccc2s1 [MTF 248, N—(N-(benzo[d]thiazol-2-yl)carbamimidoyl)benzimidamide] | 100 | 100 | 80 | 138 |
| – | Nc1nc(Nc2ccc(Cl)cc2SSc2cc(Cl)ccc2Nc2nc(N)nc(C(Cl)(Cl)Cl)n2)nc(C(Cl)(Cl)Cl)n1 [MTF 233, N2,N2′-(disulfanediylbis(4-chloro-2,1-phenylene))bis(6-(trichloromethyl)-1,3,5-triazine-2,4-diamine)] | 13.9 | 8.9 | 7 | 4.7 |
| 2300 | CC(=O)c1cccc(C(=N)NC(=N)Nc2nc3ccccc3s2)c1 [MTF 255, 3-acetyl-N—(N-(benzo[d]thiazol-2-yl)carbamimidoyl)benzimidamide] | 26.1 | 4.7 | 3.2 | 3.8 |
| – | N=C(NC(=N)c1ccccc1Cl)Nc1nc(-c2cccc([N+](=O)[O-])c2)cs1 [MTF 276, 2-chloro-N—(N-(4-(3-nitrophenyl)thiazol-2-yl)carbamimidoyl)benzimidamide] | 91.6 | 95.3 | 73.9 | 64.9 |
| – | Nc1nc(Nc2ccccc2SSc2ccccc2Nc2nc(N)nc(-c3cccs3)n2)nc(-c2cccs2)n1 [MTF 396, N2,N2′-(disulfanediylbis(2,1-phenylene))bis(6-(thiophen-2-yl)-1,3,5-triazine-2,4-diamine)] | 19.2 | 12.1 | 7.5 | 0 |
| – | Cc1nc(NC(=N)NC(=N)c2cccc(Cl)c2)sc1C [MTF 301, 3-chloro-N—(N-(4,5-dimethylthiazol-2-yl)carbamimidoyl)benzimidamide] | 74 | 47 | 106 | 31.6 |
| – | COc1ccc2nc(NC(=N)NC(=N)c3cccc(Br)c3)sc2c1 [MTF 264, 3-bromo-N—(N-(6-methoxybenzo[d]thiazol-2-yl)carbamimidoyl)benzimidamide] | 87 | – | 89 | 99 |
| – | Nc1nc(Nc2ccccc2SSc2ccccc2Nc2nc(N)nc(-c3ccc4ccccc4c3)n2)nc(-c2ccc3ccccc3c2)n1 [MTF 443, N2,N2′-(disulfanediylbis(2,1-phenylene))bis(6-(naphthalen-2-yl)-1,3,5-triazine-2,4-diamine)] | 42.3 | 10.2 | 13.8 | 7.8 |
| – | N=C(NC(=N)c1cccc(Cl)c1)Nc1nc2ccccc2s1 [MTF 243, N—(N-(benzo[d]thiazol-2-yl)carbamimidoyl)-3-chlorobenzimidamide] | 22.1 | 7 | 12.1 | 2.7 |
| – | Cc1nc(NC(=N)NC(=N)c2cccnc2)sc1C [MTF 298, N—(N-(4,5-dimethylthiazol-2-yl)carbamimidoyl)nicotinimidamide] | 97.2 | 73.6 | 87.5 | 54.7 |
| – | Nc1nc(Nc2ccccc2SSc2ccccc2Nc2nc(N)nc(-c3ccc(I)cc3)n2)nc(-c2ccc(I)cc2)n1 [MTF 328, N2,N2′-(disulfanediylbis(2,1-phenylene))bis(6-(4-iodophenyl)-1,3,5-triazine-2,4-diamine)] | 50 | 9.4 | 27.8 | 3.4 |
| – | COc1cc(-c2nc(N)nc(Nc3ccccc3SSc3ccccc3Nc3nc(N)nc(-c4cc(OC)c(OC)c(OC)c4)n3)n2)cc(OC)c1OC [MTF 446, N2,N2′-(disulfanediylbis(2,1-phenylene))bis(6-(3,4,5-trimethoxyphenyl)-1,3,5-triazine-2,4-diamine)] | 62.6 | 13 | 16.3 | 1.8 |
| – | N=C(NC(=N)c1ccccc1Cl)Nc1nc2ccccc2s1 [MTF 244, N—(N-(benzo[d]thiazol-2-yl)carbamimidoyl)-2-chlorobenzimidamide] | 81.6 | 68 | 84.9 | 68.4 |
